This is an account of results in article PMC6940896, “Development of a Highly Efficient Hybrid Peptide That Increases Immunomodulatory Activity Via the TLR4-Mediated Nuclear Factor-κB Signaling Pathway” (International Journal of Molecular Sciences, 2019).

One data set concerns peritoneal macrophages. The data set is described as follows: Peritoneal macrophage phagocytosis (neutral red uptake) in CTX-immunosuppressed mice. Type of data set: in vivo, mouse. Particulars: peritoneal macrophages of mice, OD 540 nm, CTX 80 mg/kg ip days 1-3, peptide 10 mg/kg ip days 4-10, control group 55.67%, n = 12.
A short description of data set [1]: Ex vivo stability in plasma. The class given is in vitro ADME. Conditions: rat plasma, in vitro, 37 °C, HPLC, log-linear regression; mean ± SEM of three biological replicates; read-out: t1/2, half-life in plasma (converted). The procedure:
The samples were collected into pre-chilled tubes containing 1 mL of acidic acetone (hydrochloric acid/acetone/H2O, 1:40:5, by volume). Subsequently, the mixture was centrifuged at 2 × 10^4 rpm at 4 °C for 20 min. The precipitates were dried in vacuo. The dried precipitates were dissolved in 0.5 mL of 1 M acetic acid. The peptide analysis was carried out according to the protocol for the study of Tα1 using HPLC [51]. The half-lives of the target peptides were calculated by a logarithm-linear regression analysis of the peptide concentrations.

The target in data set [2] is T1, recombinant TLR4/MD2 complex (UniProt Q9QUK6 26-638; Q9JHF9 19-160).
T1 construct: Toll-like receptor 4 (TLR4) of the recombinant TLR4/MD2 complex; MD-2 (MD2, lymphocyte antigen 96) of the recombinant TLR4/MD2 complex; source: bought: R&D Systems
T1 sequence (looked up) 1: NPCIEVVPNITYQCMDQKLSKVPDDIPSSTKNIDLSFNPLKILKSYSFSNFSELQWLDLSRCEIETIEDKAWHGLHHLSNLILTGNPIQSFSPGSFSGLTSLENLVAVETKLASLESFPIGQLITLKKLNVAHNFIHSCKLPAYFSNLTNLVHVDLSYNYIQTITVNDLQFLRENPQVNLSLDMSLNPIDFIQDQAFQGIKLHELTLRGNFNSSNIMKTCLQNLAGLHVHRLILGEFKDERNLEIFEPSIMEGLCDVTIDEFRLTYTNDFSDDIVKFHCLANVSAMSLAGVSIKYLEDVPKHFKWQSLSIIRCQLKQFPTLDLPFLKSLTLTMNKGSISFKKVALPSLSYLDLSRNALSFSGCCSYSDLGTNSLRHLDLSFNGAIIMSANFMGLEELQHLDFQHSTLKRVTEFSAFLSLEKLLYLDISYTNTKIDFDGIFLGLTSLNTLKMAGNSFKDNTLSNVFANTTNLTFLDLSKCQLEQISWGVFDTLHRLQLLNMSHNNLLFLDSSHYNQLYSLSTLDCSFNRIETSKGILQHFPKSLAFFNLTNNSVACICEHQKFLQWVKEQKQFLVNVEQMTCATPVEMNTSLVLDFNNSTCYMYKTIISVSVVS
T1 sequence (looked up) 2: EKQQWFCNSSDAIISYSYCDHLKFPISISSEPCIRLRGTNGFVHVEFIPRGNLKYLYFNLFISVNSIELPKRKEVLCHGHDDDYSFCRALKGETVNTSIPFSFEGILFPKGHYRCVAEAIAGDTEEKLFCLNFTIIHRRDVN
Nature of the data set: SPR; TLR4/MD2 immobilised by amino coupling on a ProteOn GLH chip (ProteOn XPR36); LTAa passed over at 0, 1.25, 2.5, 5 and 10 μM (methods print mM); 25 °C; PBS with 0.1% Tween 20 and 2% DMSO; 30 μL/min; global fit, homogeneous 1:1 model. Particulars: both partners purified.

Procedure for peritoneal macrophages: For the first 3 days, CTX (80 mg/kg mouse weight) was administered intraperitoneally once daily to establish the immunosuppressed animal model. From days 4 to 10 (7 days), peptides (10 mg/kg mouse weight) were administered intraperitoneally each day. The CTX group was only treated with CTX, and the control group was given sterile saline. The dose volume was 200 μL. Twenty-four hours after the last dose, the mice were killed and their tissues and blood collected for analysis.
Peritoneal macrophages were aseptically obtained from the different groups of mice by peritoneal lavage with 5 mL ice-cold phosphate-buffered saline (PBS). The peritoneal macrophages were further isolated by incubating peritoneal exudate cells at 37 °C in a moist atmosphere (5% CO2, 95% air) for 3 h to allow the cells to adhere. The adherent cells were washed twice and collected as peritoneal macrophages.
The phagocytic capacity of the peritoneal macrophages was measured by the neutral red uptake method [52]. […] The OD was measured using a microplate reader at 540 nm. The phagocytic rate was calculated in the following way:(4) hagocytic rate (%)=OD540(sample)/OD540(control) ×100% where OD540 (sample) is the absorbance at 540 nm by peptide-treated cells and OD540 (control) is the absorbance at 540 nm by the cells without peptides treated.

`O=P1(N(CCCl)CCCl)NCCCO1` (stereo not drawn) [CTX, cyclophosphamide, reference compound] registered a macrophage phagocytic rate with peritoneal macrophages of 31.93%.
Take `CC[C@H](C)[C@H](NC(=O)[C@H](CCCCN)NC(=O)[C@H](CCC(=O)O)NC(=O)[C@H](CCCCN)NC(=O)[C@H](CO)NC(=O)[C@H](CCCCN)NC(=O)[C@H](CCCNC(=N)N)NC(=O)[C@H](Cc1ccccc1)NC(=O)[C@H](Cc1ccccc1)NC(=O)[C@H](CC(=O)O)NC(=O)CNC(=O)[C@H](CC(C)C)NC(=O)[C@@H](N)CC(C)C)C(=O)NCC(=O)N[C@@H](CCCCN)C(=O)N[C@@H](CCC(=O)O)C(=O)N[C@@H](Cc1ccccc1)C(=O)N[C@@H](CCCCN)C(=O)N[C@@H](CCCNC(=N)N)C(=O)N[C@H](C(=O)N[C@H](C(=O)N[C@@H](CCC(N)=O)C(=O)N[C@@H](CCCNC(=N)N)C(=O)N[C@H](C(=O)N[C@@H](CCCCN)C(=O)N[C@@H](CC(=O)O)C(=O)N[C@@H](Cc1ccccc1)C(=O)N[C@@H](CC(C)C)C(=O)N[C@@H](CCCNC(=N)N)C(=O)N[C@@H](CC(N)=O)C(=O)N[C@@H](CC(C)C)C(=O)N[C@H](C(=O)N1CCC[C@H]1C(=O)N[C@@H](CCCNC(=N)N)C(=O)N[C@H](C(=O)N[C@@H](CCC(=O)O)C(=O)N[C@@H](CO)C(=O)O)[C@@H](C)O)C(C)C)[C@@H](C)CC)C(C)C)[C@@H](C)CC` [LL-37]: the half-life in data set [1] was 3.1 ± 0.87 h.

B1: LL-37-Tα1a hybrid peptide (LTAa) (peptide)
peptide: IGKEFKRIVQRIKDFLRNLVPRTEKEKKEVVE
notes: LL-37, human cationic host-defense peptide, residues 13-36; Thymosin alpha-1 (Tα1), residues 17-24 (Tα1a); (32 residues); source: synthetic peptide (solid-phase, KangLong Biochemistry; purity >95%)
A word on the Kd: it is the equilibrium constant for the complex coming apart. As to B1, in data set [2], the Kd was 0.0491 nM.
